Results published in article PMC6706161, “A surface plasmon resonance-based method for monitoring interactions between G protein-coupled receptors and interacting proteins” (Journal of Biological Methods, 2016).
No end group written: not given here.

Molecular target: T1, S100B (Bos taurus, UniProt P02638)
T1 construct: S100B, purified from bovine brain; purchased Merck Millipore 559290; host or cells: bovine brain (tissue-purified)
T1 sequence (P02638 2-92 limits assumed): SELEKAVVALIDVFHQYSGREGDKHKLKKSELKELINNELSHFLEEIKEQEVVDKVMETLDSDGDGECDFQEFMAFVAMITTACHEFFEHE
Experiment: SPR (Biacore 3000) steady-state binding of S100B to immobilized peptide h5-HT7_IC3
Conditions: 95% CI [3.93, 6.71], peptide amine-coupled to CM5 chip (about 1200 RU), mock-immobilized reference surface, analyte S100B purified from bovine brain, 0.38 to 12 µM (two experiments) and 1.25 to 40 µM (third), duplicates, running buffer 10 mM HEPES, 150 mM NaCl, 4 mM CaCl2, 0.005% Tween-20, pH 7.5, 25 °C, one-site binding model, three experiments, read-out: Kd (dissociation constant, affinity)
Source text: • Custom peptides (> 95% pure) can be obtained from a number of commercial sources. In our hands, peptides from Selleck Chemicals (Houston, TX) have worked well. • S100B, purified from bovine brain (Cat. # 559290; Merck Millipore, Darmstadt, Germany) • Sensor Chip CM5 (single: Cat. # BR-1003-99; pack of three chips: Cat. # BR-1000-12; GE Healthcare) • Plastic Vials, Ø 7 mm; pack of 1000 vials (Cat. # BR-1002-12; GE Healthcare) • Rubber Caps, type 3; pack of 600 caps (Cat. # BR-1005-02; GE Healthcare) • Immobilization buffers: 10 mM sodium acetate, pH 4.0 (Cat. # BR-1003-49) and pH 4.5 (Cat. # BR-1003-50; GE Healthcare); 1 × 50 ml each • HBS-EP (Cat. # BR100188, 6 x 200 ml; GE Healthcare) • NaOH (Cat. # S8045; Sigma-Aldrich, Stockholm, Sweden) • DMSO (Cat. # D2650; Sigma-Aldrich) • Amine Coupling Kit (contains EDC, NHS and 1.0 M ethanolamine-HCl pH 8.5; Cat. # BR100050; GE Healthcare) • HEPES (Cat. # H3375; Sigma-Aldrich) • NaCl (Cat. # S7653; Sigma-Aldrich) • CaCl2 · 2H2O (Cat. # C8106; Sigma-Aldrich) • Tween-20 (Cat. # P1379; Sigma-Aldrich) • EDTA disodium salt (Cat. # E5134; Sigma-Aldrich) • Syringe filters, 0.2 µm pore size (Cat. # 83.1826.001; Sarstedt, Helsingborg, Sweden) • Bottle top filtration unit, 0.45 µm pore size (Cat. # 83.1823.100; Sarstedt)
Running buffer with Ca2+: 10 mM HEPES, 150 mM NaCl, 4 mM CaCl2, 0.005% Tween-20; pH 7.5. Store at 4 °C between experiments. […]

Kd: 5.32 µM
Sequence: KFPGFPRVEPDSVIALNGIV [h5-HT7_IC3]
